Tests used:
[1] = molecular target: GST-PPARG-LBD (Homo sapiens (Human), UniProt P37231); assay: Lanthascreen PPARG competitive binding assay (Invitrogen, TR-FRET); settings: Lanthascreen competitive binding; NA = not active; inc = incomplete curve; read-out: IC50 (nM) Lantha
Protocol: Lanthascreen PPARG Competitive Binding Assay (Invitrogen)
The assay was performed according to manufacturer protocol. A mixture of […], 5 nM Tb-GST-antibody, 5 nM Fluormone Pan-PPAR Green, and serial dilutions of the experimental compound, beginning at 10 μM downwards, was added to wells of black 384-well low-volume plates (Greiner) to a total volume of 18 μL. All dilutions were made in TR-FRET assay buffer C. DMSO at 2% final concentration was used as a no-ligand control. Experiment was performed in triplicate, and incubated for 2 hours in the dark prior to assay read in Perkin Elmer ViewLux ultra HTS microplate reader. FRET signal was measured by excitation at 340 nm and emission at 520 nm for fluorescein and 490 nm for terbium. Fold change over DMSO was calculated using GraphPad Prism Software (La Jolla, Calif.) by calculating 520 nm/490 nm ratio. Graphs were plotted as fold change of FRET signal for compound treatment over DMSO-only control.

[2] = molecular target: Gal-4-PPAR (human PPAR LBD fused to GAL4 DNA-binding domain) (Homo sapiens (Human), UniProt P37231); assay: GAL4-PPARG LBD / UAS-luciferase transactivation assay in HEK 293T cells; format: cell-based; settings: for EC50: GAL4 transactivation, HEK 293T cells, NA = not active, read-out: EC50 (nM) GAL4; for activation at 10 µM: HEK-293T, 18 h, read-out: % transactivation at 10 μM (GAL4)
Gal-4-PPAR (human PPAR LBD fused to GAL4 DNA-binding domain), sequence (P37231 238-503): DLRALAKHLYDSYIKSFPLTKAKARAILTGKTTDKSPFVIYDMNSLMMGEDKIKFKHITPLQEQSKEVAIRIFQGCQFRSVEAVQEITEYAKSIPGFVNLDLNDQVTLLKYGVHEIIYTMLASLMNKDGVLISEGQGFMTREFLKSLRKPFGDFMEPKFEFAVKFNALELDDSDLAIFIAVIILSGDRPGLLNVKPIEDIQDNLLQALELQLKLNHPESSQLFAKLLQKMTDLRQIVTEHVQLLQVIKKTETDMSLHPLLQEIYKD

GST-PPARG-LBD, sequence (P37231 238-503): as above

C[C@H](NC(=O)c1ccc2c(ccn2Cc2ccc(-c3ccccc3)cc2)c1)c1ccc([N+](=O)[O-])cc1 [Example 38, (S)-1-([1,1′-Biphenyl]-4-ylmethyl)-N-(1-(4-nitrophenyl)ethyl)-1H-indole-5-carboxamide]
IC50 [1]: > 1000 nM

C[C@H](NC(=O)c1ccc2c(ccn2Cc2ccc(-c3ccccc3O)cc2)c1)c1ccc([N+](=O)[O-])cc1 [Example 40, (S)-1-((2′-Hydroxy-[1,1′-biphenyl]-4-yl)methyl)-N-(1-(4-nitrophenyl)ethyl)-1H-indole-5-carboxamide]
IC50 [1]: > 1000 nM

C[C@H](NC(=O)c1ccc2c(ccn2Cc2ccc(-c3ccc(S(C)(=O)=O)cc3)cc2)c1)c1ccc([N+](=O)[O-])cc1 [Example 50, (S)-1-((4′-(Methylsulfonyl)-[1,1′-biphenyl]-4-yl)methyl)-N-(1-(4-nitrophenyl)ethyl)-1H-indole-5-carboxamide]
IC50 [1]: > 1000 nM

CSc1ccc(-c2ccc(Cn3ccc4cc(C(=O)N[C@@H](C)c5ccc([N+](=O)[O-])cc5)ccc43)cc2)cc1 [Example 51, (S)-1-((4′-(Methylthio)-[1,1′-biphenyl]-4-yl)methyl)-N-(1-(4-nitrophenyl)ethyl)-1H-indole-5-carboxamide]
IC50 [1]: > 1000 nM

C[C@H](NC(=O)c1ccc2c(ccn2Cc2ccc(-c3cccc(N)c3)cc2)c1)c1ccc([N+](=O)[O-])cc1 [Example 52, (S)-1-((3′-Amino-[1,1′-biphenyl]-4-yl)methyl)-N-(1-(4-nitrophenyl)ethyl)-1H-indole-5-carboxamide]
IC50 [1]: > 1000 nM

C[C@H](NC(=O)c1ccc2c(ccn2Cc2ccc(-c3cccc(CN)c3)cc2)c1)c1ccc([N+](=O)[O-])cc1 [Example 53, (S)-1-((3′-(Aminomethyl)-[1,1′-biphenyl]-4-yl)methyl)-N-(1-(4-nitrophenyl)ethyl)-1H-indole-5-carboxamide]
IC50 [1]: > 1000 nM

C[C@H](NC(=O)c1ccc2c(ccn2Cc2ccc(-c3ccccc3CO)cc2)c1)c1ccc([N+](=O)[O-])cc1 [Example 54, (S)-1-((2′-(Hydroxymethyl)-[1,1′-biphenyl]-4-yl)methyl)-N-(1-(4-nitrophenyl)ethyl)-1H-indole-5-carboxamide]
IC50 [1]: > 1000 nM

C[C@H](NC(=O)c1ccc2c(ccn2Cc2ccc(-c3ccccc3C(=O)OC(C)(C)C)cc2)c1)c1ccc([N+](=O)[O-])cc1 [Example 55, (S)-tert-Butyl 4′-((5-((1-(4-nitrophenyl)ethyl)carbamoyl)-1H-indol-1-yl)methyl)-[1,1′-biphenyl]-2-carboxylate]
IC50 [1]: > 1000 nM

Cc1ccc(-c2ccc(Cn3ccc4cc(C(=O)N[C@@H](C)c5ccc([N+](=O)[O-])cc5)ccc43)cc2)cc1 [Example 57, (S)-1-((4′-Methyl-[1,1′-biphenyl]-4-yl)methyl)-N-(1-(4-nitrophenyl)ethyl)-1H-indole-5-carboxamide]
IC50 [1]: > 1000 nM

C[C@H](NC(=O)c1ccc2c(ccn2Cc2ccc(-c3cccc(Cl)c3)cc2)c1)c1ccc([N+](=O)[O-])cc1 [Example 58, (S)-1-((3′-Chloro-[1,1′-biphenyl]-4-yl)methyl)-N-(1-(4-nitrophenyl)ethyl)-1H-indole-5-carboxamide]
IC50 [1]: > 1000 nM

C[C@H](NC(=O)c1ccc2c(ccn2Cc2ccc(-c3ccc(C(=O)O)cc3)cc2)c1)c1ccc([N+](=O)[O-])cc1 [Example 59, (S)-4′-((5-((1-(4-Nitrophenyl)ethyl)carbamoyl)-1H-indol-1-yl)methyl)-[1,1′-biphenyl]-4-carboxylic acid]
IC50 [1]: > 1000 nM

C[C@H](NC(=O)c1ccc2c(ccn2Cc2ccc(-c3cccc(C(=O)O)c3)cc2)c1)c1ccc([N+](=O)[O-])cc1 [Example 60, (S)-4′-((5-((1-(4-Nitrophenyl)ethyl)carbamoyl)-1H-indol-1-yl)methyl)-[1,1′-biphenyl]-3-carboxylic acid]
IC50 [1]: > 1000 nM

C[C@H](NC(=O)c1ccc2c(ccn2Cc2ccc(-c3ccccc3C(=O)O)cc2)c1)c1ccc([N+](=O)[O-])cc1 [Example 61, (S)-4′-((5-((1-(4-Nitrophenyl)ethyl)carbamoyl)-1H-indol-1-yl)methyl)-[1,1′-biphenyl]-2-carboxylic acid]
IC50 [1]: 646 nM

Cc1c(C)n(Cc2ccc(-c3ccccc3C(=O)O)cc2)c2ccc(C(=O)NCc3ccc(C(F)(F)F)cc3F)cc12 [Example 167, 4′-((5-((2-fluoro-4-(trifluoromethyl)benzyl)carbamoyl)-2,3-dimethyl-1H-indol-1-yl)methyl)-[1,1′-biphenyl]-2-carboxylic acid]
EC50 [2]: 596 nM
activation at 10 µM [2]: 10%

Cc1c(C)n(Cc2ccc(-c3ccccc3C(=O)O)cc2)c2ccc(C(=O)NCc3ccc(Cl)cc3Cl)cc12 [Example 168, 4′-((5-((2,4-dichlorobenzyl)carbamoyl)-2,3-dimethyl-1H-indol-1-yl)methyl)-[1,1′-biphenyl]-2-carboxylic acid]
EC50 [2]: 931 nM
activation at 10 µM [2]: 18%

CC[C@@H](NC(=O)c1ccc2c(c1)c(C)c(C)n2Cc1ccccc1-c1cccc(C(=O)O)c1)c1ccccc1 [Example 193, (R)-2′-((2,3-dimethyl-5-((1-phenylpropyl)carbamoyl)-1H-indol-1-yl)methyl)-[1,1′-biphenyl]-3-carboxylic acid]
EC50 [2]: 191 nM
activation at 10 µM [2]: 40%

CC[C@H](NC(=O)c1ccc2c(c1)c(C)c(C)n2Cc1ccccc1-c1cccc(C(=O)O)c1)c1ccccc1 [Example 194, (S)-2′-((2,3-dimethyl-5-((1-phenylpropyl)carbamoyl)-1H-indol-1-yl)methyl)-[1,1′-biphenyl]-3-carboxylic acid]
EC50 [2]: 793 nM
activation at 10 µM [2]: 18%

CC[C@@H](NC(=O)c1ccc2c(c1)c(C)c(C)n2Cc1ccccc1-c1ccc(C(=O)O)cc1)c1ccccc1 [Example 195, (R)-2′-((2,3-dimethyl-5-((1-phenylpropyl)carbamoyl)-1H-indol-1-yl)methyl)-[1,1′-biphenyl]-4-carboxylic acid]
EC50 [2]: 169 nM
activation at 10 µM [2]: 35%

Cc1c(C)n(Cc2ccc(-c3ccccc3C(=O)O)cc2)c2ccc(C(=O)N[C@@H](C)c3cccc(OC(C)C)c3)cc12 [Example 199, (S)-4′-((5-((1-(3-isopropoxyphenyl)ethyl)carbamoyl)-2,3-dimethyl-1H-indol-1-yl)methyl)-[1,1′-biphenyl]-2-carboxylic acid]
EC50 [2]: 2750 nM
activation at 10 µM [2]: 10%

Cc1c(C)n(Cc2ccc(-c3ccccc3C(=O)O)cc2)c2ccc(C(=O)N[C@@H](C)c3ccc(OC(C)C)cc3)cc12 [Example 201, (S)-4′-((5-((1-(4-isopropoxyphenyl)ethyl)carbamoyl)-2,3-dimethyl-1H-indol-1-yl)methyl)-[1,1′-biphenyl]-2-carboxylic acid]
EC50 [2]: 941 nM
activation at 10 µM [2]: 10%

Cc1c(C)n(Cc2ccc(-c3ccccc3C(=O)O)cc2)c2ccc(C(=O)N[C@H]3CCN(C(=O)OCc4ccccc4)C3)cc12 [Example 204, (S)-4′-((5-((1-((benzyloxy)carbonyl)pyrrolidin-3-yl)carbamoyl)-2,3-dimethyl-1H-indol-1-yl)methyl)-[1,1′-biphenyl]-2-carboxylic acid]
activation at 10 µM [2]: 0%

Cc1c(C)n(Cc2ccc(-c3ccccc3C(=O)O)cc2)c2ccc(C(=O)N[C@@H](C)c3ccc(Cl)c(C(F)(F)F)c3)cc12 [Example 222, (S)-4′-((5-((1-(4-chloro-3-(trifluoromethyl)phenyl)ethyl)carbamoyl)-2,3-dimethyl-1H-indol-1-yl)methyl)-[1,1′-biphenyl]-2-carboxylic acid]
EC50 [2]: 193 nM
activation at 10 µM [2]: 5%
